Our source for the Ki values is patent publication US9447122B2, “Arginase inhibitors and methods of use thereof” (AstraZeneca AB, priority 2010, dated 2016).

The structures appear in SMILES notation. Read-outs that look alike come from different tables or passages of the source.

One assay concerns the target T1, human arginase I (Homo sapiens, UniProt P05089).
T1 sequence (P05089 1-322): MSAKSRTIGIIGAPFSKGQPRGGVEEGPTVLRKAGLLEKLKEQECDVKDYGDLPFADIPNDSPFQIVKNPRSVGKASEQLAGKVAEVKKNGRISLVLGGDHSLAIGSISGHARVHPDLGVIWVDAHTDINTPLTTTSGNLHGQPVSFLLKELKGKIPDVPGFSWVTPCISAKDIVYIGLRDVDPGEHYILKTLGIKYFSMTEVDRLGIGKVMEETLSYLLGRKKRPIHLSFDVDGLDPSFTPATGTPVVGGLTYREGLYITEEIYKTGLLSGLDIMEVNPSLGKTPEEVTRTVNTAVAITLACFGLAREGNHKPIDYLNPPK
Kind of assay: Arginase inhibition, QuantiChrom colorimetric urea assay, IC50 converted to Ki. Type of assay: biochemical. As for the experimental part: (§1) For some compounds, their inhibitory potency at pH 7.5 was compared to the inhibitory potency of ABH at pH 7.5.
(§2) Quantitative determination of arginase activity was performed in a 96-well format by a colorimetric method using the QuantiChrom™ Arginase Assay Kit available from BioAssay Systems (Hayward, Calif., Catalog No. DARG-200) according to the manufacturer's protocol. Modifications were made to reagent quantities to suit the assaying of a highly purified sample.
(§3) The intensity of the color was directly proportional to the arginase activity in the sample.
(§4) The rate of urea production was measured in the presence of twelve different concentrations of each potential inhibitor compound. In a typical assay, seven different compounds were tested relative to a control inhibitor (e.g. ABH) against one enzyme (either human ArgI or human ArgII) at a particular pH (either 9.5 or 7.5). The pH of the solution was controlled using an appropriate pH buffering compound at 60 mM concentrations; for example, 60 mM glycine (pH 9.5) or 60 mM HEPES (pH 7.5). The half maximal inhibitory concentration (IC50) was determined by constructing a dose-response curve.

The target in another assay is T2, human arginase II (Homo sapiens, UniProt P78540).
T2 sequence (P78540 23-354): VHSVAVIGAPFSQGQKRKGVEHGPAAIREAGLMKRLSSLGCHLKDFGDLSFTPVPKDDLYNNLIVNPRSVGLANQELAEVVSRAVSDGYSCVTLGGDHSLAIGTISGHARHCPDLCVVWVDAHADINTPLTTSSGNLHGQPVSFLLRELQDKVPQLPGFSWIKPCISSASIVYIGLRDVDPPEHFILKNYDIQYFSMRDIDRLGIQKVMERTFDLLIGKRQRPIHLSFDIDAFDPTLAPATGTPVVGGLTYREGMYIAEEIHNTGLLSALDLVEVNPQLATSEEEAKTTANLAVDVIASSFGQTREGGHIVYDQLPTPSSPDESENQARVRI
The assay is described as above. The class given is biochemical. As for the experimental part: as §1, §2, §3, §4

The mark [1] stands for this setting: Table 3, pH 7.5, read-out: human Arginase I pH 7.5, Ki assigned value.
[2] abbreviates: Table 3, pH 9.5, read-out: human Arginase I pH 9.5, Ki assigned value.
[3] abbreviates: Table 3, pH 7.5, read-out: human Arginase II pH 7.5, Ki assigned value.
Where [4] appears, read: Table 3, pH 9.5, read-out: human Arginase II pH 9.5, Ki assigned value.

`NC(CCCCB(O)O)(CCN1CCN(Cc2ccc(Cl)c(Cl)c2)CC1)C(=O)O` (centres unmarked) [Example 15]: the Ki on human arginase I (setting [1]) was 0.101 to 0.25 µM; on human arginase I (setting [2]) it was 0.101 to 0.25 µM; on human arginase II (setting [3]), over 0.4 µM; at human arginase II (setting [4]), 0.051 to 0.1 µM.

As to `NC(CCCCB(O)O)(CCCN1CCC1)C(=O)O` (centres unmarked) [Example 57], the Ki at human arginase I (setting [1]) is under 0.01 µM; on human arginase I (setting [2]) it was 0.011 to 0.05 µM; on human arginase II (setting [3]) it was 0.011 to 0.05 µM; on human arginase II (setting [4]), 0.051 to 0.1 µM.

For the molecule `NC(CCCCB(O)O)(CCCN1CCC(O)(Cc2ccccc2)CC1)C(=O)O` (centres unmarked) [Example 39], the inhibitory constant (Ki) is under 0.01 µM on human arginase I (setting [1]), under 0.01 µM on human arginase I (setting [2]), under 0.01 µM on human arginase II (setting [3]) and 0.011 to 0.05 µM at human arginase II (setting [4]).

Regarding `NC(CCCCB(O)O)(CCCN1CCC(NS(=O)(=O)c2ccc(Cl)c(Cl)c2)C1)C(=O)O` (centres unmarked) [Example 114], the Ki was under 0.01 µM at human arginase I (setting [1]), 0.011 to 0.05 µM on human arginase I (setting [2]), under 0.01 µM on human arginase II (setting [3]) and 0.011 to 0.05 µM at human arginase II (setting [4]).

Turning to `NC(CCCCB(O)O)(CCCN1CC(NC(=O)Nc2ccc(Cl)c(Cl)c2)C1)C(=O)O` (centres unmarked) [Example 60], the Ki at human arginase I (setting [1]) was under 0.01 µM; on human arginase I (setting [2]), under 0.01 µM; at human arginase II (setting [3]), under 0.01 µM; on human arginase II (setting [4]) it was 0.011 to 0.05 µM.

For the molecule `NC(CCCCB(O)O)(CCCN1C2CCC1CC(n1cnc3ccccc31)C2)C(=O)O` (centres unmarked) [Example 102], the Ki at human arginase I (setting [1]) is under 0.01 µM; at human arginase I (setting [2]), 0.011 to 0.05 µM; on human arginase II (setting [3]) it was under 0.01 µM; at human arginase II (setting [4]), 0.011 to 0.05 µM.

For `NC(CCCCB(O)O)(CCCN1CCC(Cc2ccc(F)c(F)c2)CC1)C(=O)O` (centres unmarked) [Example 28], the Ki at human arginase I (Table 2, pH 7.5, read-out: human arginase I pH 7.5, Ki assigned value) is under 0.01 µM; at human arginase I (Table 2, pH 9.5, read-out: human arginase I pH 9.5, Ki assigned value), under 0.01 µM; on human arginase II (Table 2, pH 7.5, read-out: human arginase II pH 7.5, Ki assigned value) it was 0.051 to 0.1 µM; on human arginase II (Table 2, pH 9.5, read-out: human arginase II pH 9.5, Ki assigned value) it was under 0.01 µM.

On to `NC(CCCCB(O)O)(CCCN1CCc2ccccc2C1)C(=O)O` (centres unmarked) [Example 45], for which the Ki at human arginase I (setting [1]) is under 0.01 µM; at human arginase I (setting [2]), 0.011 to 0.05 µM; on human arginase II (setting [3]), under 0.01 µM; on human arginase II (setting [4]), 0.011 to 0.05 µM.

`NC(CCCCB(O)O)(CCCN1CCC(O)(c2ccc(Cl)cc2)CC1)C(=O)O` (centres unmarked) [Example 40]: the Ki is under 0.01 µM on human arginase I (setting [1]), under 0.01 µM at human arginase I (setting [2]), under 0.01 µM on human arginase II (setting [3]) and 0.011 to 0.05 µM on human arginase II (setting [4]).

Take `NC(CCCCB(O)O)(CCC1CCCCN1Cc1cc(F)cc(F)c1)C(=O)O` (centres unmarked) [Example 20]: the Ki on human arginase I (setting [1]) fell in the range of 0.011 to 0.05 µM; at human arginase I (setting [2]) it was 0.011 to 0.05 µM; at human arginase II (setting [3]), 0.101 to 0.25 µM; on human arginase II (setting [4]), 0.101 to 0.25 µM.

As for `NC(CCCCB(O)O)(CCCN1CCN(Cc2cccc(C(F)(F)F)c2)CC1)C(=O)O` (centres unmarked) [Example 9], the Ki on human arginase I (setting [1]) was under 0.01 µM; on human arginase I (setting [2]) it was 0.051 to 0.1 µM; at human arginase II (setting [3]), 0.011 to 0.05 µM; on human arginase II (setting [4]) it was 0.011 to 0.05 µM.

Turning to `NC(CCCCB(O)O)(CCCN1CCOCC1)C(=O)O` (centres unmarked) [Example 64], the Ki was under 0.01 µM at human arginase I (setting [1]), 0.011 to 0.05 µM on human arginase I (setting [2]), 0.011 to 0.05 µM at human arginase II (setting [3]) and 0.051 to 0.1 µM at human arginase II (setting [4]).

Regarding `NC(CCCCB(O)O)(CCCN1CCSCC1)C(=O)O` (centres unmarked) [Example 65], the Ki is 0.011 to 0.05 µM at human arginase I (setting [1]), 0.051 to 0.1 µM at human arginase I (setting [2]), 0.011 to 0.05 µM on human arginase II (setting [3]) and over 0.4 µM at human arginase II (setting [4]).

For `NC(CCCCB(O)O)(CCCN1CCCC1c1ccccc1C(F)(F)F)C(=O)O` (centres unmarked) [Example 51], the Ki lay within 0.011 to 0.05 µM on human arginase I (setting [1]), 0.051 to 0.1 µM on human arginase I (setting [2]), 0.011 to 0.05 µM on human arginase II (setting [3]) and 0.101 to 0.25 µM on human arginase II (setting [4]).

As for `NC(CCCCB(O)O)(CCCN1CCCC1)C(=O)O` (centres unmarked) [Example 56], the Ki on human arginase I (setting [1]) was 0.011 to 0.05 µM; at human arginase I (setting [2]), 0.011 to 0.05 µM; on human arginase II (setting [3]) it was 0.051 to 0.1 µM; on human arginase II (setting [4]), 0.101 to 0.25 µM.

Regarding `CN(C)CCN(C)CCCC(N)(CCCCB(O)O)C(=O)O` (centres unmarked) [Example 88], the Ki is 0.051 to 0.1 µM at human arginase I (setting [1]), 0.011 to 0.05 µM at human arginase I (setting [2]), 0.051 to 0.1 µM on human arginase II (setting [3]) and 0.051 to 0.1 µM on human arginase II (setting [4]).

Take `COc1ccc(C2CCN(CCCC(N)(CCCCB(O)O)C(=O)O)CC2)cc1` (centres unmarked) [Example 37]: the inhibition constant Ki was under 0.01 µM at human arginase I (setting [1]), under 0.01 µM at human arginase I (setting [2]), under 0.01 µM at human arginase II (setting [3]) and 0.011 to 0.05 µM at human arginase II (setting [4]).
